Earlier results on 1 molecule are cited in patent US20070293479A1, “OLANZAPINE PHARMACEUTICAL COMPOSITION” (priority 2006, published 2007).

The conditions of the data set: free base, at pH 6.8.

With `Cc1cc2c(s1)Nc1ccccc1N=C2N1CCN(C)CC1` [Olanzapine], the solubility result is “about 0.02 mg/ml”.
